What was measured:
[1] = tested on: BALB/cJ mice; assay: Delivery of hEPO mRNA by intramuscular administration of LNPs; serum hEPO by ELISA; format: in vivo, Mouse; details: for hEPO 6 Hr (ng/ml) Mean: Table 2, isosorbide-derived lipids; for hEPO 6 Hr (ng/ml) Mean / hEPO 6 Hr (ng/mL) Mean: mouse serum 6 hours post single IM injection of 0.1 μg hEPO mRNA LNP; for hEPO 6 Hr (ng/mL) Mean / hEPO 24 Hr (ng/ml) Mean: Table 3, isomannide-derived lipids; for hEPO 24 Hr (ng/ml) Mean: mouse serum 24 hours post single IM injection of 0.1 μg hEPO mRNA LNP
Procedure: In summary, lipid screening studies were conducted with female BALB/cJ mice 6-8 weeks of age. Mice were dosed with 0.1 μg in 30 μL of LNPs by a single intramuscular (IM) injection into the gastrocnemius leg muscle. Blood samples were taken 6 and 24 hours post injection and hEPO levels were measured in the blood serum of the mice using an ELISA assay according to the manufacture's protocol.
Treatment Regimen: On Day 1, animals from Groups 1-33 were dosed via intramuscular injection while under light isoflurane anesthesia according to the study design table above. Animals in Groups 1-33 were injected with EPO mRNA LNPs in the right leg only. Groups 1 and 17 animals received MC3 control.
Interim Sample Collections: Interim whole blood (^~50 μL) was collected by tail snip or saphenous vein at 6 and 24 hours post dose administration (±5%). Blood samples were collected into serum separator tubes, allowed to clot at room temperature for at least 10 minutes, centrifuged at ambient temperature at minimum 1000 g for 10 minutes and the serum was extracted. All serum samples were stored at nominally −70° C. until analysis hEPO by the Testing Facility. The results of the EPO analysis were included in the Data Submission.
Terminal Blood Collections: Whole blood was collected via cardiac puncture into serum separator tube, allowed to clot at room temperature for at least 10 minutes, centrifuged at ambient temperature at minimum 1000 g for 10 minutes and the serum was extracted. Serum samples were stored at nominally −70° C. until analyzed for hEPO by the Test Facility.
ELISA Assay: Human erythropoietin (hEPO) levels in sera samples were determined by ELISA kit (R&D systems, Cat #DEP-00) according to the manufactory instruction and the results were included in the Data Submission. The “shaker” protocol was used. The serum samples were diluted between 1:40 and 1:100.

[2] = Lipid nanoparticle size and polydispersity index by dynamic light scattering (Malvern Zetasizer); format: physicochemical; details: hEPO mRNA LNP, Process A, Cationic Lipid:DMG-PEG2000:Cholesterol:DOPE 40:1.5:28.5:30 mol %, N/P 4
Excerpt: The lipid nanoparticles in the examples of the present invention were formulated using Process A of WO 2018/089801 (see, e.g., Example 1 and FIG. 1 of WO 2018/089801). Process A (“A”) relates to a conventional method of encapsulating mRNA by mixing mRNA with a mixture of lipids, without first pre-forming the lipids into lipid nanoparticles. In an exemplary process, an ethanolic solution of a mixture of lipids (cationic lipid, phosphatidylethanolamine, cholesterol, and polyethylene glycol-lipid) at a fixed lipid to mRNA ratio were combined with an aqueous buffered solution of target mRNA at an acidic pH under controlled conditions to yield a suspension of uniform LNPs. After ultrafiltration and diafiltration into a suitable diluent system, the resulting nanoparticle suspensions were diluted to final concentration, filtered, and stored frozen at −80° C. until use.
(§1) Lipid nanoparticle formulations of Table 1 were prepared by Process A. All of the lipid nanoparticle formulations comprised hEPO mRNA and the different lipids (Cationic Lipid: DMG-PEG2000: Cholesterol: DOPE) in mol % ratios of 40:1.5:28.5:30 (Cationic Lipid: DMG-PEG2000: Cholesterol: DOPE).
The Polydispersity Index (Pdl) of lipid nanoparticles can be determined by diluting the formulation in 10% trehalose at about 0.1 mg/ml mRNA concentration and then measuring the size on Malvern zetasizer. The lipid nanoparticle size can be obtained with Malvern Zetasizer Nano-ZS.
Dynamic light scattering (DLS) measurements were performed using a Malvern Instruments Zetasizer with a backscattering detector angle of 173° and a 4-mW, 633-nm He—Ne laser (Worcestershire, UK). The samples were analyzed by diluting in 10% Trehalose and measuring the size and Poly dispersity Index (PDI) in an optical grade polystyrene cuvette.

[3] = mRNA encapsulation efficiency of lipid nanoparticles (RiboGreen assay); format: physicochemical; details: hEPO mRNA LNP, Process A, Cationic Lipid:DMG-PEG2000:Cholesterol:DOPE 40:1.5:28.5:30 mol %, N/P 4
Excerpt: In embodiments, the lipid nanoparticle encapsulates a nucleic acid, optionally an mRNA encoding a peptide or protein. In embodiments, the lipid nanoparticle encapsulates an mRNA encoding a peptide or protein, optionally for use in a vaccine. In embodiments, the peptide is an antigen. As used herein, the phrase “encapsulation percentage” refers to the fraction of therapeutic agent (e.g. mRNA) that is effectively encapsulated within a liposomal-based vehicle (e.g. a lipid nanoparticle) relative to the initial fraction of therapeutic agent present in the lipid phase. In embodiments, the lipid nanoparticles have an encapsulation percentage for mRNA of at least 50%. In embodiments, the lipid nanoparticles have an encapsulation percentage for mRNA of at least 55%. In embodiments, the lipid nanoparticles have an encapsulation percentage for mRNA of at least 60%. In embodiments, the lipid nanoparticles have an encapsulation percentage for mRNA of at least 65%. In embodiments, the lipid nanoparticles have an encapsulation percentage for mRNA of at least 70%. In embodiments, the lipid nanoparticles have an encapsulation percentage for mRNA of at least 75%. In embodiments, the lipid nanoparticles have an encapsulation percentage for mRNA of at least 80%. In embodiments, the lipid nanoparticles have an encapsulation percentage for mRNA of at least 85%. In embodiments, the lipid nanoparticles have an encapsulation percentage for mRNA of at least 90%. In embodiments, the lipid nanoparticles have an encapsulation percentage for mRNA of at least 95%. In embodiments, the encapsulation percentage is calculated by performing the Ribogreen assay (Invitrogen) with and without the presence of 0.1% Triton-X 100.
as §1
The RiboGreen Assay is a fluorescence-based method for the determination of mRNA concentration (Total and Free) and % encapsulation using Quant-iT™ RiboGreen® RNA reagent in mRNA containing lipid nanoparticles.
• To each of the standards (Blank, mRNA-1, mRNA-2. mRNA-3, mRNA-4, mRNA-5) and Samples (free mRNA and total mRNA), add 1.0 mL of 200-fold Ribogreen Reagent Solution and gently mix by inversion. This is a 2× Dilution. • Add 200 μL of each standard and sample in triplicate using the reverse pipetting technique in a 96-well Costar Black with Clear Background Plate. Ensure no bubbles are present in the plate before the fluorescence reading. • Read the fluorescence signal using the below instrument parameters: • Read Type: Fluorescence, Bottom Read • Excitation: 485 nm; Cut-off: 515 nm; Emission: 530 nm • Plate Type: 96-well Costar Black with Clear Background
The average fluorescence from each calibration standard is plotted against the concentration to generate a linear calibration curve using the MS Excel software. The coefficient of determination (R^2) of calibration curve must be R^2>0.99.
[formula] • Where, • Y=average fluorescence value • m: slope • x: concentration (pg/mL) • c: y-intercept • Using the linear equation, calculate the concentration of free and total mRNA concentration in the test sample by replacing the y value in the equation with the average fluorescence value of each respective sample • Once the concentration is determined, the actual concentration in the sample can be back-calculated by multiplying the concentration in the test sample with the dilution factor (DF) as follows:
[formula] [formula] • Concentration of encapsulated mRNA can be determined by subtracting the concentration of free mRNA from the total mRNA. • % Encapsulation can then be calculated by taking the ratio of encapsulated mRNA over total mRNA and multiplying the result with 100.

| SMILES | hEPO 6 Hr (ng/ml) Mean [1] | Polydispersity Index (PDI) [2] | Size (nm) [2] | Encapsulation efficiency (EE) % [3] | hEPO 6 Hr (ng/mL) Mean [1] | hEPO 24 Hr (ng/ml) Mean [1] |
| --- | --- | --- | --- | --- | --- | --- |
| CCCCCCCCCCCOC(=O)CCCC(O)CN(CCCC(=O)O[C@@H]1CO[C@H]2[C@@H]1OC[C@@H]2OC(=O)CCCN(CC(O)CCCCCCCCCC)CC(O)CCCCCCCCCC)CC(O)CCCCCC(=O)OC(CCCCCCCC)CCCCCCCC (stereo in doubt) [Compound 32] | 33.2 ng/mL | 0.2 | 94 nm | 94% | – | – |
| CCCCCCCCC(O)CN(CCCC(=O)O[C@@H]1CO[C@H]2[C@@H]1OC[C@H]2OC(=O)CCCN(CC(O)CCCCCCCC)CC(O)CCCCCCCC)CC(O)CCCCCCCC (stereo partly drawn) [Compound 1] | – | 0.14 | 93 nm | 85% | 42.5 ng/mL | – |
| CCCCCCCCC(O)CN(CCCCC(=O)O[C@@H]1CO[C@H]2[C@@H]1OC[C@H]2OC(=O)CCCCN(CC(O)CCCCCCCC)CC(O)CCCCCCCC)CC(O)CCCCCCCC (stereo partly drawn) [Compound 2] | – | 0.16 | 77 nm | 68% | 36.3 ng/mL | – |
| CCCCCCCCCCC(O)CN(CCCCC(=O)O[C@@H]1CO[C@H]2[C@@H]1OC[C@H]2OC(=O)CCCCN(CC(O)CCCCCCCCCC)CC(O)CCCCCCCCCC)CC(O)CCCCCCCCCC (stereo partly drawn) [Compound 4] | – | 0.16 | 78 nm | 94% | 43.2 ng/mL | – |
| CCCCCCCCCCCCC(O)CN(CCCCC(=O)O[C@@H]1CO[C@H]2[C@@H]1OC[C@H]2OC(=O)CCCCN(CC(O)CCCCCCCCCCCC)CC(O)CCCCCCCCCCCC)CC(O)CCCCCCCCCCCC (stereo partly drawn) [Compound 5] | – | 0.11 | 107 nm | 75% | 26.3 ng/mL | – |
| CCCCCCCCCCCCCCC(O)CN(CCCC(=O)O[C@@H]1CO[C@H]2[C@@H]1OC[C@H]2OC(=O)CCCN(CC(O)CCCCCCCCCCCCCC)CC(O)CCCCCCCCCCCCCC)CC(O)CCCCCCCCCCCCCC (stereo partly drawn) [Compound 6] | – | 0.16 | 114 nm | 99% | 40.9 ng/mL | – |
| CCCCCCCCCCCCCCC(O)CN(CCCC(=O)O[C@@H]1CO[C@H]2[C@@H]1OC[C@H]2OC(=O)CCCCN(CC(O)CCCCCCCCCC)CC(O)CCCCCCCCCC)CC(O)CCCCCCCCCCCCCC (stereo partly drawn) [Compound 8] | – | 0.13 | 91 nm | 95% | 25.7 ng/mL | – |
| CCCCCCCCCCCOC(=O)CCCC(O)CN(CCCC(=O)O[C@@H]1CO[C@H]2[C@@H]1OC[C@H]2OC(=O)CCCN(CC(O)CCCCCCCCCC)CC(O)CCCCCCCCCC)CC(O)CCCCCC(=O)OC(CCCCCCCC)CCCCCCCC (stereo partly drawn) [Compound 9] | – | 0.1 | 114 nm | 91% | 30.7 ng/mL | 19.8 ng/mL |
| CCCCCCCCCCCOC(=O)CCCC(O)CN(CCCC(=O)O[C@@H]1CO[C@H]2[C@@H]1OC[C@H]2OC(=O)CCCN(CC(O)CCCCCC(=O)OC(CCCCCCCC)CCCCCCCC)CC(O)CCCC(=O)OCCCCCCCCCCC)CC(O)CCCCCC(=O)OC(CCCCCCCC)CCCCCCCC (stereo partly drawn) [Compound 11] | – | 0.1 | 120 nm | 94% | 36 ng/mL | – |
| CCCCCC/C=C\COC(=O)CCCCCC(O)CN(CCCC(=O)O[C@@H]1CO[C@H]2[C@@H]1OC[C@H]2OC(=O)CCCN(CC(O)CCCCCCCCCC)CC(O)CCCCCCCCCC)CC(O)CCCCCC(=O)OC/C=C\CCCCCC (stereo partly drawn) [Compound 15] | – | 0.11 | 88 nm | 91% | 22.8 ng/mL | – |
| CCCCCC/C=C\COC(=O)CCCCCC(O)CN(CCCC(=O)O[C@@H]1CO[C@H]2[C@@H]1OC[C@H]2OC(=O)CCCN(CC(O)CCCCCC(=O)OC/C=C\CCCCCC)CC(O)CCCCCC(=O)OC/C=C\CCCCCC)CC(O)CCCCCC(=O)OC/C=C\CCCCCC (stereo partly drawn) [Compound 16] | – | 0.11 | 84 nm | 77% | 9.4 ng/mL | – |
| CCCCCCCCCCC(O)CN(CCCC(=O)O[C@@H]1CO[C@H]2[C@@H]1OC[C@H]2OC(=O)CCCN(CC(O)CCCCCC(=O)OC(CCCCCCCC)CCCCCCCC)CC1CCCC(=O)O1)CC(O)CCCCCCCCCC (stereo partly drawn) [Compound 19] | – | 0.13 | 94 nm | 74% | 10.7 ng/mL | 5.35 ng/mL |
| CCCCCCCCC(O)CN(CCCC(=O)O[C@H]1CO[C@H]2[C@@H]1OC[C@H]2OC(=O)CCCN(CC(O)CCCCCCCC)CC(O)CCCCCCCC)CC(O)CCCCCCCC (stereo partly drawn) [Compound 20] | 25.2 ng/mL | 0.13 | 95 nm | 89% | – | – |

Reference: US20260224486A1, “DIANHYDROHEXITOL BASED IONIZABLE LIPIDS FOR NUCLEIC ACID DELIVERY” (SANOFI PASTEUR INC., priority 2023, published 2026)
